Where two headings read alike, the source gives them in different places.
Tests used:
Format in all cases: cell-based
[1] = test system: BALB/3T3 (normal mouse fibroblasts); experiment: In vitro cytotoxicity, SRB assay, normal BALB/3T3 fibroblasts
[2] = test system: PLC/PRF/5 (human liver cancer); experiment: cells; conditions: for SI PLC/PRF/5: selectivity coefficient vs normal BALB/3T3 fibroblasts
[3] = test system: SNU-16 (human gastric cancer); experiment: cells; conditions: for SI SNU-16: selectivity coefficient vs normal BALB/3T3 fibroblasts
Hs294T (human melanoma) = experiment: cells; conditions: for IC50: Hs 294T, read-out: IC50 (nM) Hs294T; for SI Hs294T: selectivity coefficient vs normal BALB/3T3 fibroblasts
[4] = test system: A2780Cis (cisplatin-resistant human ovarian cancer); experiment: In vitro cytotoxicity, SRB assay, A2780Cis; conditions: for IC50: Homo sapiens, A2780cis, read-out: IC50 (nM) A2780Cis
[5] = test system: NCI-H358 (human lung cancer); experiment: cells; conditions: for SI NCI-H358: selectivity coefficient vs normal BALB/3T3 fibroblasts
[6] = test system: MV-4-11 (human biphenotypic leukaemia); experiment: In vitro cytotoxicity, MTT assay, MV-4-11; conditions: for IC50: Homo sapiens, MV4-11, read-out: IC50 (nM) MV4-11
[7] = test system: MIA PaCa-2 (human pancreatic cancer); experiment: cells; conditions: for SI MIA PaCa-2: selectivity coefficient vs normal BALB/3T3 fibroblasts
[8] = Table 4, BALB/3T3 normal mouse fibroblasts, read-out: IC50 (nM) BALB3T3 normal cells
[9] = Table 4, PLC/PRF/5 human liver cancer cells, read-out: IC50 (nM) PLC/PRF/5
[10] = Table 4, SNU-16 human gastric cancer cells, read-out: IC50 (nM) SNU-16
[11] = Table 4, Hs294T human melanoma cells
[12] = Table 4, NCI-H358 human lung cancer cells, read-out: IC50 (nM) NCI-H358
[13] = Table 4, MIA PaCa-2 human pancreatic cancer cells, read-out: IC50 (nM) MIA PaCa-2

| SMILES | IC50 [1, 8] [nM] | IC50 [2, 9] [nM] | SI PLC/PRF/5 ([2]; Table 4) | IC50 [3, 10] [nM] | SI SNU-16 ([3]; Table 4) | IC50 (Hs294T (human melanoma); [11]) [nM] | SI Hs294T (Hs294T (human melanoma); Table 4) | SI A2780Cis [4] | IC50 [4] [nM] | IC50 [5, 12] [nM] | SI NCI-H358 ([5]; Table 4) | SI MV4-11 [6] | IC50 [6] [nM] | IC50 [7, 13] [nM] | SI MIA PaCa-2 ([7]; Table 4) | further results |
| --- | --- | --- | --- | --- | --- | --- | --- | --- | --- | --- | --- | --- | --- | --- | --- | --- |
| CC[C@@H](C(=O)[C@@H](C)[C@@H](O)[C@H](C)[C@@H]1O[C@@H]([C@@H](CC)C(=O)O)CC[C@@H]1C)[C@H]1O[C@]2(C=C[C@@H](NC(=O)Nc3ccc(Cl)c(Cl)c3)[C@]3(CC[C@@](C)([C@H]4CC[C@](O)(CC)[C@H](C)O4)O3)O2)[C@H](C)C[C@@H]1C [FLC-00370-1•Na] | 4400 | 144 | 30.5 | 1520 | 2.9 | 1860 | 2.4 | 134.5 | 32.7 | 826 | 5.33 | 106.9 | 41.2 | 489 | 9.0 | – |
| CC[C@@H](C(=O)[C@@H](C)[C@@H](O)[C@H](C)[C@@H]1O[C@@H]([C@@H](CC)C(=O)O)CC[C@@H]1C)[C@H]1O[C@]2(C=C[C@@H](NC(=O)C(N)=O)[C@]3(CC[C@@](C)([C@H]4CC[C@](O)(CC)[C@H](C)O4)O3)O2)[C@H](C)C[C@@H]1C [FLC-00376-1•Na] | 4640 | 1360 | 3.4 | – | – | – | – | 10.6 | 436 | 5310 | 0.87 | 7.0 | 663 | 1850 | 2.5 | – |
| CC[C@@H](C(=O)[C@@H](C)[C@@H](O)[C@H](C)[C@@H]1O[C@@H]([C@@H](CC)C(=O)O)CC[C@@H]1C)[C@H]1O[C@]2(C=C[C@@H](NC(=O)Nc3cccc(C(F)(F)F)c3)[C@]3(CC[C@@](C)([C@H]4CC[C@](O)(CC)[C@H](C)O4)O3)O2)[C@H](C)C[C@@H]1C [FLC-00385-1] | 21.9 | 0.55 | 39.7 | 20.9 | 1.0 | 162 | 0.1 | ≈219.0 | < 0.1 | 36.2 | 0.60 | 125.5 | 0.17 | 5.93 | 3.7 | – |
| CC[C@@H](C(=O)[C@@H](C)[C@@H](O)[C@H](C)[C@@H]1O[C@@H]([C@@H](CC)C(=O)O)CC[C@@H]1C)[C@H]1O[C@]2(C=C[C@@H](NC(=S)NC(C)C)[C@]3(CC[C@@](C)([C@H]4CC[C@](O)(CC)[C@H](C)O4)O3)O2)[C@H](C)C[C@@H]1C [FLC-00387-1] | – | 0.7 | – | 10.2 | – | 162 | – | – | – | 44.4 | – | – | – | 9.71 | – | – |
| CC[C@@H](C(=O)[C@@H](C)[C@@H](O)[C@H](C)[C@@H]1O[C@@H]([C@@H](CC)C(=O)O)CC[C@@H]1C)[C@H]1O[C@]2(C=C[C@@H](NC(N)=O)[C@]3(CC[C@@](C)([C@H]4CC[C@](O)(CC)[C@H](C)O4)O3)O2)[C@H](C)C[C@@H]1C [FLC-00391-1] | 3570 | 584 | 6.1 | 1330 | 2.7 | 5870 | 0.6 | 33.0 | 108 | 5150 | 0.69 | 10.2 | 349 | 3090 | 1.2 | – |
| CC[C@@H](C(=O)[C@@H](C)[C@@H](O)[C@H](C)[C@@H]1O[C@@H]([C@@H](CC)C(=O)O)CC[C@@H]1C)[C@H]1O[C@]2(C=C[C@@H](NC(=O)OCC(F)(F)F)[C@]3(CC[C@@](C)([C@H]4CC[C@](O)(CC)[C@H](C)O4)O3)O2)[C@H](C)C[C@@H]1C [FLC-00395-1•Na] | – | – | 2.1 | – | 0.8 | – | 1.6 | 43.8 | 1.78 | – | 0.65 | 177.2 | 0.44 | – | 2.4 | IC50 ([1]; Mus musculus, BALB/3T3, read-out: IC50 (nM) BALB3T3 normal cells): 78 nM; IC50 ([2]; Homo sapiens, PLC-PRF-5, read-out: IC50 (nM) PLC/PRF/5): 37.5 nM; IC50 ([3]; Homo sapiens, SNU-16, read-out: IC50 (nM) SNU-16): 104 nM; IC50 (Hs294T (human melanoma); Homo sapiens): 47.3 nM; IC50 ([5]; Homo sapiens, NCI-H358, read-out: IC50 (nM) NCI-H358): 121 nM; IC50 ([7]; Homo sapiens, MIA PaCa-2, read-out: IC50 (nM) MIA PaCa-2): 33.1 nM |
| C=CCOC(=O)N[C@@H]1C=C[C@]2(O[C@H]([C@@H](CC)C(=O)[C@@H](C)[C@@H](O)[C@H](C)[C@@H]3O[C@@H]([C@@H](CC)C(=O)O)CC[C@@H]3C)[C@@H](C)C[C@H]2C)O[C@@]12CC[C@@](C)([C@H]1CC[C@](O)(CC)[C@H](C)O1)O2 [FLC-00425-1•Na] | – | 26.5 | – | 420 | – | 362 | – | – | – | 234 | – | – | – | 269 | – | – |
| CC[C@@H](C(=O)[C@@H](C)[C@@H](O)[C@H](C)[C@@H]1O[C@@H]([C@@H](CC)C(=O)O)CC[C@@H]1C)[C@H]1O[C@]2(C=C[C@@H](NC(=O)Nc3c(F)c(F)c(F)c(F)c3F)[C@]3(CC[C@@](C)([C@H]4CC[C@](O)(CC)[C@H](C)O4)O3)O2)[C@H](C)C[C@@H]1C [FLC-00428-1•Na] | 244 | 7.85 | 31.1 | 114 | 2.1 | 173 | 1.4 | 56.0 | 4.36 | 57.3 | 4.27 | 182.9 | 1.34 | 36.9 | 6.6 | – |
| CC[C@@H](C(=O)[C@@H](C)[C@@H](O)[C@H](C)[C@@H]1O[C@@H]([C@@H](CC)C(=O)O)CC[C@@H]1C)[C@H]1O[C@]2(C=C[C@@H](NC(=O)Oc3ccccc3)[C@]3(CC[C@@](C)([C@H]4CC[C@](O)(CC)[C@H](C)O4)O3)O2)[C@H](C)C[C@@H]1C [FLC-00429-1•Na] | – | 27 | – | 168 | – | 115 | – | – | – | 76.1 | – | – | – | 39.8 | – | – |
| CC[C@@H](C(=O)[C@@H](C)[C@@H](O)[C@H](C)[C@@H]1O[C@@H]([C@@H](CC)C(=O)O)CC[C@@H]1C)[C@H]1O[C@]2(C=C[C@@H](NC(=O)OCc3ccccc3)[C@]3(CC[C@@](C)([C@H]4CC[C@](O)(CC)[C@H](C)O4)O3)O2)[C@H](C)C[C@@H]1C [FLC-00431-1•Na] | – | 5.8 | – | 143 | – | 115 | – | – | – | 56.1 | – | – | – | 28.9 | – | – |
| CC[C@@H](C(=O)[C@@H](C)[C@@H](O)[C@H](C)[C@@H]1O[C@@H]([C@@H](CC)C(=O)O)CC[C@@H]1C)[C@H]1O[C@]2(C=C[C@@H](NC(=O)OCCF)[C@]3(CC[C@@](C)([C@H]4CC[C@](O)(CC)[C@H](C)O4)O3)O2)[C@H](C)C[C@@H]1C [FLC-00437-1•Na] | 192 | 42.3 | 4.5 | 342 | 0.6 | 264 | 0.7 | 40.8 | 4.7 | 184 | 1.04 | 37.5 | 5.11 | 45.7 | 4.2 | – |

From patent US20240294541A1, “COMPOUNDS CONSTITUTING C20-MODIFIED SALINOMYCIN DERIVATIVES, A METHOD FOR OBTAINING THE SAME, A COMPOSITION CONTAINING THE SAME AND A USE OF SAID COMPOUNDS” (FILECLO SPOLKA Z OGRANICZONA ODPOWIEDZIALNOSCIA, priority 2021, published 2024)
